Patent publication US10975043B2, “Heterocyclic compound” (TAKEDA PHARMACEUTICAL COMPANY LIMITED, priority 2014, dated 2021)

Legend:
RBP4 [1] = target: T1, RBP4 (Homo sapiens, UniProt P02753); assay: Binding assay by Retinol-RBP4-TTR ELISA; parameters: the culture supernatant containing secreted hRBP4-His was recovered; made in house; host or cells: FreeStyle 293 expression system (Invitrogen), secreted into the culture supernatant; settings: 10 μM compound; retinol 50 nM; His-tagged human RBP4, biotinylated human TTR; read-out: human RBP4 binding inhibitory activity (% at 10 μM)
Procedure: Using the Retinol-RBP4-TTR ELISA system shown below, the action of the compound of the present invention to inhibit the binding of RBP4 and retinol and TTR was evaluated.
1F: Binding Assay by Retinol-RBP4-TTR ELISA
This ELISA system detects a complex with RBP4 and TTR based on the retinol dependent binding of RBP4 to TTR.
The His-tagged human RBP4 used was prepared in the above-mentioned 1C.
The biotinylated human TTR used was prepared in the above-mentioned 1E.
Streptavidin (20 μl) (10 μg/ml Streptavidin type II (Wako Pure Chemical Industries, Ltd.), 10 mM Tris-HCl (pH 7.5), 10 mM NaCl) was added to a 384 well blackplate (Nunc MaxiSorp, Thermo Fisher Scientific Inc.), and the plate was centrifuged (1000 rpm, 1 min) and coated at 4° C. overnight. The plate was washed twice with PBST (PBS, 0.05% Tween 20, 100 μl/well), and blocked with 25% Block Ace (Snow Brand Milk Products Co., Ltd., PBS, 100 μl/well). The plate was subjected to centrifugation (1000 rpm, 1 min), and incubated at room temperature for 4 hr or 4° C. overnight. The plate was washed twice with PBST (PBS, 0.05% Tween 20, 100 μl/well), and biotinylated human TTR (stock solution concentration 1.0 mg/ml) diluted 750-fold with PBST was added at […]. The plate was subjected to centrifugation (1000 rpm, 1 min), and further stood at room temperature for 1.5 hr or 4° C. overnight. The plate was washed 3 times with PBST (100 μl/well), and His-tagged human RBP4 (stock solution concentration 1.28 mg/ml) diluted 4000-fold with a reaction buffer (50 mM Tris-HCl, 150 mM NaCl, 0.005% Tween 20, 1 mM DTT, 0.1% BSA) was added at 10 μl/well. The dilution of the compound (200-fold concentration) was prepared with DMSO, and 1.6 μl each was added to a reaction buffer (320 μl) containing retinol (50 nM) (Sigma-Aldrich Co.). A reaction buffer (320 μl) containing retinol and added with DMSO was used as a positive control, and a reaction buffer (320 μl) not containing retinol and added with DMSO was used as a negative control. A mixed solution of retinol and the compound was added to the plate at 15 μl/well. The plate was stirred in a plate mixer, centrifuged (1000 rpm, 1 min), and reacted at room temperature for 2 hr. Anti-His HRP-conjugated antibody (QIAGEN) solution diluted with a reaction buffer was added at 10 μl/well, centrifuged (1000 rpm, 1 min), and reacted at room temperature for 30 min. The plate was washed 3 times with PBST (100 μl/well), SuperSignal ELISA Femto Maximum Sensitivity Substrate reagent (PIERCE, Thermo Fisher Scientific Inc.) was added at 30 μl/well, and the luminescence was measured by a plate reader (Envision).
The binding inhibitory activity of the compound was determined by 100×(positive control value−test compound value)/(positive control value−negative control value).

RBP4 [2] = target: T2, RBP4 (Mus musculus, UniProt Q00724); assay: Blood RBP4-lowering action in C57BL/6J mouse, plasma RBP4 by ELISA; assay type: in vivo; settings: mean±SD, n=4 or 5
T2 construct: from tissue; host or cells: plasma of male C57BL/6J mice (Japan Charles River)
Procedure: The blood RBP4-lowering action of the compound of the present invention was evaluated using C57BL/6J mouse.
Male 7- to 10-week-old C57BL/6J mice (Japan Charles River) were acclimation reared under free food ingestion conditions on CE-2 solid feed (CLEA Japan, Inc.) for 4 to 6 days, and randomly grouped (4 or 5 per group). On the day of the test, blood samples were collected from the tail vein, and plasma was separated (0 hr value). Thereafter, a test compound (Example 1, 2, 3, 4, 5, 6, 7 or 8) was orally administered at a dose of 3 mg/kg or 10 mg/kg (solvent: 0.5% methylcellulose solution (10 mL/kg)). At 8 and 24 hr after the compound was administered, blood samples were collected from the tail vein and plasma was separated. A 0.5% methylcellulose solution (10 mL/kg) was orally administered to the control group.
The amount of RBP4 in the collected plasma was measured by the ELISA method. Using rabbit anti-mouse RBP4 polyclonal antibody (Hokudo Co., Ltd.), RBP4 was quantified by the following process. A 96 well ELISA plate was coated with 50 μg/mL antibody (100 μL), and stood at 4° C. overnight or at room temperature for 2 hr. After blocking with BlockAce (Dainippon Pharmaceutical Co., Ltd.), 100 μL of mouse RBP4 or sample was added and the plate was stood at room temperature for 2 hr, washed with PBS-0.5% Tween20, added with HRP-labeled anti-RBP4 antibody (prepared by labeling RBP4 polyclonal antibody (Hokudo Co., Ltd.) with HRP (DOJINDO LABORATORIES)) (100 μL), and stood at room temperature for 1 hr. After washing, TMB (Sigma) was added at room temperature for 20 min to allow for color development. The reaction was quenched with 2N sulfuric acid and the absorbance at A450 nm was measured by a platereader. Variation from the initial value of each individual was taken as the relative value to the control group (initial value/control value, %) at each time point. The results are shown below in mean±standard deviation (n=4 or 5).

[3] = system: A2E in the eyeball of ABCA4 KO mouse; assay: Suppression of A2E accumulation in the eyeball of ABCA4 KO mouse, A2E by HPLC; assay type: in vivo; settings: 8 or 12 weeks
Procedure: The suppressive action for accumulation of retinoid metabolite bis-retinoid N-retinylidene-N-retinylethanolamine (A2E) in the eyeball, of the compound of the present invention, was evaluated using ATP-binding cassette A4 knockout (ABCA4 KO) mouse. A2E is the major constituent component of Lipofuscin in the eyeball, and is involved in the onset and pathology progression in atrophic age-related macular degeneration and Stargardt's disease. ABCA4 KO mouse was confirmed to show remarkable accumulation of A2E, Lipofuscin along with aging, and is known as an animal model of atrophic age-related macular degeneration and Stargardt's disease.
8-Week-old male ABCA4 KO mice were randomly grouped, and 0.5% methylcellulose solution was orally administered to the control group, and 0.5% methylcellulose suspension of a compound at a dose shown in the following Table was orally administered to the test compound group, each once per day at 10 mL/kg. Each group contained 6 or 7 mice. After repetitive administration for 8 or 12 weeks, eyeball was isolated under anesthesia.
In the eyeball, A2E was measured by the HPLC method. A2E reference standard was synthesized from all-trans retinal, ethanolamine in acetic acid-added ethanol. First, 0.3 mL of PBS and zirconia beads were added to the eyeball, and homogenate was prepared using Mixer Mill MM 300 (QIAGEN). A chloroform:methanol (2:1) solution (0.8 mL) was added and the mixture was stirred for […]. The lower layer was separately taken in a different tube, the chloroform:methanol (2:1) solution (0.6 mL) was further added and the mixture was stirred for 5 min. The lower layer was combined with one separated earlier, and dried to solidness by blowing nitrogen gas. 0.05 mL of 85% acetonitrile solution was added and the mixture was stirred to give a measurement sample. For HPLC, Alliance e2695 and Photo diode array 2998 (PDA) (Waters) were used, and Empower 2 was used as an analysis software. The column used was Atlantis dC18 (3 μm, 3.9×150 mm) (Waters), and the column temperature was set to 40° C. […] Quantification was performed at ultraviolet absorbance at 440 nm by PDA.

RBP4 [4] = settings: administration to an animal; cited from earlier work
RBP4 [5] = target: T1, RBP4; settings: consequently inhibits formation of a complex with TTR; cited from earlier work

Compound | inhibition at 10 µM (RBP4 [1]) [%] | RBP4 (initial value/control value %) 8 hr later (RBP4 [2]; 10 mg/kg single oral dose) [%] | RBP4 (initial value/control value %) 24 hr later (RBP4 [2]; 10 mg/kg single oral dose) [%] | also measured
O=C(O)COc1cnc(-c2cc(C(F)(F)F)cc(C(F)(F)F)c2)nc1 [Example 1, ((2-(3,5-bis(trifluoromethyl)phenyl)pyrimidin-5-yl)oxy)acetic acid] | 98 | 37.25 ± 11.45 | 61.81 ± 14.79 | –
O=C(O)COc1ccc(-c2cc(C(F)(F)F)cc(C(F)(F)F)c2)nc1 [Example 2, ((6-(3,5-bis(trifluoromethyl)phenyl)pyridin-3-yl)oxy)acetic acid] | 99 | 23.93 ± 5.84 | 64.87 ± 16.79 | A2E (% of control value) ([3]; 10 mg/kg oral once per day): 77.63 ± 9.06 % of control value
CC1=C(/C=C/C(C)=C/C=C/C(C)=C/C(=O)Nc2ccc(O)cc2)C(C)(C)CCC1 [fenretinide, 4-hydroxy(phenyl)retinamide] | – | – | – | blood RBP4 (RBP4 [4]): induces lowering of blood RBP4; binding of RBP4 and retinol (RBP4 [5]): inhibits binding of RBP4 and retinol
O=C(O)CCn1ccc(-c2cc(C(F)(F)F)cc(C(F)(F)F)c2)n1 [Example 3, 3-(3-(3,5-bis(trifluoromethyl)phenyl)-1H-pyrazol-1-yl)propanoic acid] | 100 | 20.70 ± 1.55 | 49.64 ± 10.48 | A2E (% of control value) ([3]; 10 mg/kg oral once per day): 73.90 ± 15.58 % of control value
O=C(O)COc1ccn(-c2cc(C(F)(F)F)cc(C(F)(F)F)c2)n1 [Example 5, ((1-(3,5-bis(trifluoromethyl)phenyl)-1H-pyrazol-3-yl)oxy)acetic acid] | 100 | – | – | A2E (% of control value) ([3]; 3 mg/kg oral once per day): 59.10 ± 10.33 % of control value; RBP4 (initial value/control value %) 8 hr later (RBP4 [2]; 3 mg/kg single oral dose): 32.14 ± 6.82%; RBP4 (initial value/control value %) 24 hr later (RBP4 [2]; 3 mg/kg single oral dose): 36.20 ± 1.87%
COC(=O)COc1ccc(-c2cc(C(F)(F)F)cc(C(F)(F)F)c2)nc1 [Example 7, methyl 2-((6-(3,5-bis(trifluoromethyl)phenyl)pyridin-3-yl)oxy)acetate] | – | 43.66 ± 4.92 | 71.75 ± 8.77 | –
O=C(O)COc1nc(-c2cc(C(F)(F)F)cc(C(F)(F)F)c2)co1 [Example 4, ((4-(3,5-bis(trifluoromethyl)phenyl)-1,3-oxazol-2-yl)oxy)acetic acid] | 100 | – | – | A2E (% of control value) ([3]; 1 mg/kg oral once per day): 79.47 ± 14.53 % of control value; RBP4 (initial value/control value %) 8 hr later (RBP4 [2]; 3 mg/kg single oral dose): 19.86 ± 11.85%; RBP4 (initial value/control value %) 24 hr later (RBP4 [2]; 3 mg/kg single oral dose): 54.29 ± 19.15%
CCOC(=O)COc1cnc(-c2cc(C(F)(F)F)cc(C(F)(F)F)c2)nc1 [Example 6, ethyl 2-((2-(3,5-bis(trifluoromethyl)phenyl)pyrimidin-5-yl)oxy)acetate] | – | 58.17 ± 8.61 | 79.70 ± 5.22 | –
